Reference: patent US9371337B2, “β-lactamase inhibitors” (The Regents of the University of California, priority 2011, dated 2016)

Assays:
Conditions in all cases: antibiotic alone
[1] = test system: E. cloacae overproducing chromosomally-mediated class C β-lactamase; test: MIC of third-generation cephalosporins alone and with compounds 4 or 9 (Table 3); assay type: cell-based, Enterobacter cloacae
Text: (§1) Antimicrobial activity was investigated quantitatively to determine the minimum inhibitory concentrations (MICs) of the β-lactam/inhibitor combination necessary to inhibit the bacterial growth (Table 3). The MICs of β-lactams alone against the strains corresponded to a high level of resistance according to Clinical and Laboratory Standards Institute (CLSI) standards. (Clinical and Laboratory Standards Institute, Performance standards for antimicrobial susceptibility testing, 20th Informational Supplement, M100-S20 2010) The compounds had no measurable antibiotic activity when used alone.
(§2) Susceptibility testing was performed and interpreted following the guidelines of CLSI. (Clinical and Laboratory Standards Institute, Performance standards for antimicrobial susceptibility testing, 20th Informational Supplement, M100-S20 2010) The compounds were dissolved in 50% DMSO, and dilutions were performed using Muller-Hinton medium. An adequate final concentration was obtained to determine the minimum inhibitory concentrations (MICs). The concentration of DMSO was maintained below 5%. The inhibitors were tested for synergy with the third-generation β-lactams ceftazidime and cefotaxime against several clinical bacteria. […] Each value reported reflects the average of three independent experiments. […] A Klebsiella pneumoniae isolate produced the inducible plasmid-mediated class C enzyme DHA-1. The Friedman's test and the Wilcoxon signed rank test were used to compare MIC values. Statistical significance was established at p<0.05.

[2] = test system: C. freundii overproducing chromosomally-mediated class C β-lactamase; test: as above; assay type: cell-based, Citrobacter freundii
Text: as §1, §2

[3] = test system: P. aeruginosa overproducing chromosomally-mediated class C β-lactamase; test: as above; assay type: cell-based, Pseudomonas aeruginosa
Text: as §1, §2

[4] = test system: K. pneumoniae producing the plasmid-mediated class C β-lactamase DHA-1; test: as above; assay type: cell-based, Klebsiella pneumoniae
Text: as §1, §2

[5] = test system: E. coli overproducing chromosomally-mediated class C β-lactamase; test: as above; assay type: cell-based, Escherichia coli
Text: as §1, §2

[6] = test system: E. coli producing plasmid-mediated class A β-lactamase CTX-M-14; test: as above; assay type: cell-based, Escherichia coli
Text: as §1, §2

[7] = test system: E. cloacae 135, AmpC-overproducing; test: MIC of third-generation cephalosporins alone and with compounds (Table 6); assay type: cell-based, Enterobacter cloacae
Protocol: (§3) The anti-resistance activity of inhibitors was investigated by the determination of the minimum inhibitory concentrations (MICs) of the β-lactam/inhibitor combination necessary to inhibit the growth of clinically-isolated bacteria resistant to third-generation cephalosporins via expression of class A or class C β-lactamases (Table 6).
(§4) Susceptibility testing was performed and interpreted following the guidelines of CLSI. (Clinical and Laboratory Standards Institute, Performance standards for antimicrobial susceptibility testing, 20th Informational Supplement, M100-S20 2010) The compounds were dissolved in 50% DMSO, and dilutions were performed using Muller-Hinton medium. An adequate final concentration was obtained to determine the minimum inhibitory concentrations (MICs). The concentration of DMSO was maintained below 5%. The inhibitors were tested for synergy with the third-generation β-lactams ceftazidime and cefotaxime against several clinical bacteria. The ratio of β-lactams to inhibitors was 1:4. Each value reported reflects the average of three independent experiments. […] The Friedman's test and the Wilcoxon signed rank test were used to compare MIC values. Statistical significance was established at p<0.05.
(§5) Table 6. MICs (μg/ml) of third-generation cephalosporins alone and in association with the compounds (ratio 1/4) for clinical bacteria. CTX, cefotaxime and CAZ, ceftazidime. ^1, AmpC-overproducing bacteria; ^2, CTX-M-14-producing E. coli; ^3, KPC-2-producing K. pneumoniae; ^4, OXA-48-producing K. pneumoniae; ^5, NDM-1-producing C. freundii.

[8] = test system: E. cloacae, AmpC-overproducing; test: as above; assay type: cell-based, Enterobacter cloacae
Protocol: as §3, §4, §5

[9] = test system: C. freundii 101, AmpC-overproducing; test: as above; assay type: cell-based, Citrobacter freundii
Protocol: as §3, §4, §5

[10] = test system: C. freundii, AmpC-overproducing; test: as above; assay type: cell-based, Citrobacter freundii
Protocol: as §3, §4, §5

[11] = test system: NDM-1-producing C. freundii; test: as above; assay type: cell-based, Citrobacter freundii
Protocol: as §3, §4, §5

[12] = test system: P. aeruginosa, AmpC-overproducing; test: as above; assay type: cell-based, Pseudomonas aeruginosa
Protocol: as §3, §4
Table 6. MICs (μg/ml) of third-generation cephalosporins alone and in association with the compounds (ratio 1/4) for clinical bacteria. […]

[13] = test system: K. pneumoniae, AmpC-overproducing; test: as above; assay type: cell-based, Klebsiella pneumoniae
Protocol: as §3, §4, §5

[14] = test system: OXA-48-producing K. pneumoniae; test: as above; assay type: cell-based, Klebsiella pneumoniae
Protocol: as §3, §4, §5

[15] = test system: CTX-M-14-producing E. coli; test: as above; assay type: cell-based, Escherichia coli
Protocol: as §3, §4, §5

[16] = test system: E. coli 142, AmpC-overproducing; test: as above; assay type: cell-based, Escherichia coli
Protocol: as §3, §4, §5

[17] = test system: E. coli 144, AmpC-overproducing; test: as above; assay type: cell-based, Escherichia coli
Protocol: as §3, §4, §5

[18] = test system: E. coli 145, AmpC-overproducing; test: as above; assay type: cell-based, Escherichia coli
Protocol: as §3, §4, §5

[19] = test system: E. coli 146, AmpC-overproducing; test: as above; assay type: cell-based, Escherichia coli
Protocol: as §3, §4, §5

[20] = test system: E. coli R1, AmpC-overproducing; test: as above; assay type: cell-based, Escherichia coli
Protocol: as §3, §4, §5

[21] = test system: E. coli, AmpC-overproducing; test: as above; assay type: cell-based, Escherichia coli
Protocol: as §3, §4, §5

CC(C)(O/N=C(\C(=O)N[C@@H]1C(=O)N2C(C(=O)[O-])=C(C[n+]3ccccc3)CS[C@H]12)c1csc(N)n1)C(=O)O [Ceftazidime]
MIC, cephalosporin alone [1]: 64 µg/mL | MIC, cephalosporin alone [2]: 64 µg/mL | MIC, cephalosporin alone [3]: 32 µg/mL | MIC, cephalosporin alone [4]: 32 µg/mL | MIC, cephalosporin alone [5]: 64 µg/mL | MIC, cephalosporin alone [6]: 2 µg/mL | MIC, cephalosporin alone [7]: 128 µg/mL | MIC, cephalosporin alone [8]: 64 µg/mL | MIC, cephalosporin alone [9]: 128 µg/mL | MIC, cephalosporin alone [10]: 64 µg/mL | MIC, cephalosporin alone [11]: 512 µg/mL | MIC, cephalosporin alone [12]: 32 µg/mL | MIC, cephalosporin alone [13]: 32 µg/mL | MIC, cephalosporin alone [14]: 256 µg/mL | MIC, cephalosporin alone [15]: 2 µg/mL | MIC, cephalosporin alone [16]: 32 µg/mL | MIC, cephalosporin alone [17]: 64 µg/mL | MIC, cephalosporin alone [18]: 128 µg/mL | MIC, cephalosporin alone [19]: 64 µg/mL | MIC, cephalosporin alone [20]: 8 µg/mL | MIC, cephalosporin alone [21]: 128 µg/mL
